In ChEMBL document CHEMBL5506053, “Explorations of Agonist Selectivity for the α9* nAChR with Novel Substituted Carbamoyl/Amido/Heteroaryl Dialkylpiperazinium Salts and Their Therapeutic Implications in Pain and Inflammation” (J Med Chem, 2024):
Activity calls are given as the source filed them.

What was measured:
[1] = target: Neuronal acetylcholine receptor subunit alpha-9 (Homo sapiens, UniProt Q9UGM1); experiment: Agonist activity at human alpha9 nAChR expressed as xenopus laevis oocytes assessed as increase in receptor desensitization by measuring fold change in maximum response (Imax) measured after 120 secs by two-electrode voltage-clamp electrophysiology method relative to acetylcholine; type: cell-based; settings: Oocyte, filed as agonist, time 120.0 sec
Chain of Neuronal acetylcholine receptor subunit alpha-9 (Q9UGM1 whole entry): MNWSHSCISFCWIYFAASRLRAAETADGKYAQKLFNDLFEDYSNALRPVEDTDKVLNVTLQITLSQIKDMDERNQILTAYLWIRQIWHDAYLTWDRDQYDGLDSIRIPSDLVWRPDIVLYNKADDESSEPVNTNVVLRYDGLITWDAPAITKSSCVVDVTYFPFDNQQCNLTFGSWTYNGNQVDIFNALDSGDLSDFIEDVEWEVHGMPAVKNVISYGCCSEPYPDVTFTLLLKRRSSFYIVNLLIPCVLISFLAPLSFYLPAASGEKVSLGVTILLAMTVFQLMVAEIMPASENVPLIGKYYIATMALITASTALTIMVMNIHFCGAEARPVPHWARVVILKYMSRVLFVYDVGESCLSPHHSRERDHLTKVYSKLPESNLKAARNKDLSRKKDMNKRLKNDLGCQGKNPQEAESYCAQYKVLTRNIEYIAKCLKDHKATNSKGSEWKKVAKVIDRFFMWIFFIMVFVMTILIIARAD

[2] = target: Neuronal acetylcholine receptor; alpha9/alpha10 (Homo sapiens) (UniProt Q9UGM1+Q9GZZ6); experiment: Agonist activity at human alpha9alpha10 nAChR expressed as xenopus laevis oocytes assessed as increase in receptor desensitization by measuring fold change in maximum response (Imax) measured after 120 secs by two-electrode voltage-clamp electrophysiology method relative to acetylcholine; type: cell-based; settings: Oocyte, filed as agonist, time 120.0 sec
[3] = target: T1, Neuronal acetylcholine receptor subunit alpha-7 (Homo sapiens, UniProt P36544); experiment: (§1) Agonist activity at human alpha7 nAChR expressed as xenopus laevis oocytes assessed as increase in receptor desensitization by measuring fold change in maximum response (Imax) measured after 120 secs by two-electrode voltage-clamp electrophysiology method relative to acetylcholine; type: cell-based; settings: Oocyte, filed as agonist, time 120.0 sec
T1 sequence (P36544 whole entry): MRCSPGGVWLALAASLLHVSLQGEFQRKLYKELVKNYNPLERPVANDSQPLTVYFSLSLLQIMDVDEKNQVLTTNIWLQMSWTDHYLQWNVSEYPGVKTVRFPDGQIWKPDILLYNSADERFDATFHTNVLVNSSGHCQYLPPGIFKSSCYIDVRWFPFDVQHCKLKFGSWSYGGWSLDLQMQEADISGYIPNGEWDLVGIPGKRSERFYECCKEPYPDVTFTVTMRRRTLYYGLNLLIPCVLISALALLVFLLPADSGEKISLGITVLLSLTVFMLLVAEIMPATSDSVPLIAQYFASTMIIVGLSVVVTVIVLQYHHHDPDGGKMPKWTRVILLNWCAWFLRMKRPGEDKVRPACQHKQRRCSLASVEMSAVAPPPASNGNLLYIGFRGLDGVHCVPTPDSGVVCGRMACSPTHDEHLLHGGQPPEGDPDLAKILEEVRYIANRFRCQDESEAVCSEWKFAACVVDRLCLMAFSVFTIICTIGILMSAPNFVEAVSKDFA

[4] = target: T1, Neuronal acetylcholine receptor subunit alpha-7; experiment: as §1, with “peak current” for “maximum”, “at 30 uM incubated for” for “(Imax) measured after”, “secs presence of PNU-120596” for “secs”; type: cell-based; settings: Oocyte, filed as agonist, time 120.0 sec
[5] = target: T2, Neuronal acetylcholine receptor; alpha4/beta2 (Homo sapiens) (UniProt P17787+P43681); experiment: Agonist activity at human alpha4beta2 nAChR expressed in xenopus laevis oocytes at 30 uM measured after 120 secs by two-electrode voltage-clamp electrophysiology method relative to control; type: cell-based; settings: Oocyte, time 120.0 sec
[6] = target: T3, Neuronal acetylcholine receptor; alpha3/beta4 (Homo sapiens) (UniProt P30926+P32297); experiment: Agonist activity at human alpha3beta4 nAChR expressed in xenopus laevis oocytes at 100 uM measured after 120 secs by two-electrode voltage-clamp electrophysiology method relative to control; type: cell-based; settings: Oocyte, time 120.0 sec
Oocyte [7] = experiment: Agonist activity at mouse muscle alpha1beta1epsilondelta nAChR expressed in xenopus laevis oocytes at 30 uM measured after 120 secs by two-electrode voltage-clamp electrophysiology method relative to control; type: cell-based; settings: time 120.0 sec
[8] = target: T3, Neuronal acetylcholine receptor; alpha3/beta4 (Homo sapiens); experiment: (§2) Inhibition of acetylcholine induced response in human alpha3beta4 nAChR expressed in xenopus laevis oocytes assessed as fold change at 100 uM preincubated with 3 uM acetylcholine followed by compound administration for 12 sec and measured 181 sec post washout by two-electrode voltage-clamp electrophysiology method relative to acetylcholine alone; type: cell-based; settings: Oocyte
[9] = target: T2, Neuronal acetylcholine receptor; alpha4/beta2 (Homo sapiens); experiment: as §2, with “alpha4beta2” for “alpha3beta4”, “30” for “100”; type: cell-based; settings: Oocyte
Oocyte [10] = experiment: as §2, with “mouse muscle alpha1beta1epsilondelta” for “human alpha3beta4”, “30” for “100”; type: cell-based
THP-1 [11] = experiment: Induction of IL-1beta release in LPS primed monocytic human THP-1 cells at 10 uM primed with LPS for 5 hrs followed by compound addition and further incubated for 40 mins by ELISA; type: functional, cell-based
THP-1 [12] = experiment: Cytotoxicity against monocytic human THP-1 cells assessed as effect on lactate dehydrogenase activity in supernatant; type: toxicity, cell-based
[13] = Metabolic stability in pooled BALB/c mouse plasma at 1 uM measured after 0 to 120 mins by UPLC-MS/MS analysis; type: ADME, cell-free; settings: time 0-120 min
[14] = Plasma protein binding in human; type: ADME, cell-free
[15] = Apparent permeability across apical to basolateral side in human Caco-2 cells at pH 5 at 5 ug/ml measured after 2 hrs by UPLC-MS/MS analysis; type: ADME, cell-based; settings: caco-2, pH 5, 2 h, dose 5 µg/ml
[16] = Apparent permeability across apical to basolateral side in human Caco-2 cells at pH 6.8 at 5 ug/ml measured after 2 hrs by UPLC-MS/MS analysis; type: ADME, cell-based; settings: caco-2, pH 6.8, 2 h, dose 5 µg/ml
[17] = Apparent permeability across apical to basolateral side in human Caco-2 cells at pH 7.4 at 5 ug/ml measured after 2 hrs by UPLC-MS/MS analysis; type: ADME, cell-based; settings: caco-2, pH 7.4, 2 h, dose 5 µg/ml
[18] = Apparent permeability across basolateral to apical side in human Caco-2 cells at pH 5 at 5 ug/ml measured after 2 hrs by UPLC-MS/MS analysis; type: ADME, cell-based; settings: caco-2, pH 5, 2 h, dose 5 µg/ml
[19] = Apparent permeability across basolateral to apical side in human Caco-2 cells at pH 6.8 at 5 ug/ml measured after 2 hrs by UPLC-MS/MS analysis; type: ADME, cell-based; settings: caco-2, pH 6.8, 2 h, dose 5 µg/ml
[20] = Apparent permeability across basolateral to apical side in human Caco-2 cells at pH 7.4 at 5 ug/ml measured after 2 hrs by UPLC-MS/MS analysis; type: ADME, cell-based; settings: caco-2, pH 7.4, 2 h, dose 5 µg/ml
[21] = Metabolic stability in pooled BALB/c mouse plasma assessed as compound remaining at 1 uM measured after 0 to 120 mins by UPLC-MS/MS analysis; type: ADME, cell-free; settings: time 0-120 min
Mus musculus [22] = experiment: Antinociceptive activity in complete freund's adjuvant induced inflammatory pain in C57BL/6J mouse model assessed as increase in mechanical pain threshold at 10 mg/kg, ip pretreated with CFA for 3 days followed by compound treatment and measured after 1 to 24 hrs; type: functional, organism-based; settings: time 1-24 hrs
Mus musculus [23] = experiment: Antinociceptive activity in complete freund's adjuvant induced inflammatory pain in C57BL/6J mouse model assessed as increase in mechanical pain threshold at 2 mg/kg, ip pretreated with CFA for 3 days followed by compound treatment and measured after 6 to 24 hrs; type: functional, organism-based; settings: time 6-24 hrs
Mus musculus [24] = experiment: Antinociceptive activity in complete freund's adjuvant induced inflammatory pain in C57BL/6J mouse model assessed as increase in mechanical pain threshold at 10 mg/kg, ip pretreated with CFA for 3 days followed by compound treatment and measured after 5 days; type: functional, organism-based; settings: time 5.0 day
Mus musculus [25] = experiment: Antinociceptive activity in complete freund's adjuvant induced inflammatory pain in C57BL/6J mouse model assessed as increase in mechanical pain threshold at 10 mg/kg, ip pretreated with CFA for 3 days followed by compound treatment and measured after 72 hrs; type: functional, organism-based
Mus musculus [26] = experiment: Antinociceptive activity in sham-treated C57BL/6J mouse model assessed as effect on von Frey response at 10 mg/kg, ip measured after 5 days; type: functional, organism-based; settings: time 5.0 day
[27] = Toxicity in C57BL/6J mouse assessed as effect on locomotor activity at 10 mg/kg, ip measured after 6 hrs; type: organism-based; settings: in vivo
Mus musculus [28] = experiment: Antinociceptive activity in complete freund's adjuvant induced inflammatory pain in C57BL/6J mouse model harboring wild type alpha7 nAChR assessed as increase in mechanical pain threshold at 10 mg/kg, ip pretreated with CFA for 3 days followed by compound treatment and measured after 6 hrs; type: functional, organism-based
Mus musculus [29] = experiment: Antinociceptive activity in complete freund's adjuvant induced inflammatory pain in alpha7 nAChR knockout C57BL/6J mouse model assessed as increase in mechanical pain threshold at 10 mg/kg, ip pretreated with CFA for 3 days followed by compound treatment and measured after 6 hrs; type: functional, organism-based
Mus musculus [30] = experiment: Antiinflammatory activity in CFA-treated C57BL/6J mouse model assessed as reduction in paw edema at 10 mg/kg, ip measured after 6 hrs
[31] = target: T1, Neuronal acetylcholine receptor subunit alpha-7; experiment: Partial agonist activity at human alpha7 nAChR expressed as xenopus laevis oocytes assessed as increase in receptor desensitization by measuring fold change in maximum response (Imax) measured after 120 secs by two-electrode voltage-clamp electrophysiology method relative to acetylcholine; type: cell-based; settings: Oocyte, filed as partial agonist, time 120.0 sec
PBMC [32] = experiment: Inhibition of ATP-mediated IL-1beta release in LPS primed BzATP induced human PBMC cells at 100 fM primed with LPS for 3 hrs followed by BzATP and compound addition for 30 mins by ELISA; type: functional, cell-based
PBMC [33] = experiment: Inhibition of ATP-mediated IL-1beta release in LPS primed BzATP induced human PBMC cells at 100 uM primed with LPS for 3 hrs followed by BzATP and compound addition for 30 mins by ELISA; type: functional, cell-based
Mus musculus [34] = experiment: Antinociceptive activity in complete freund's adjuvant induced inflammatory pain in C57BL/6J mouse model assessed as increase in mechanical pain threshold at 20 mg/kg, ip pretreated with CFA for 3 days followed by compound treatment and measured after 1 to 72 hrs; type: functional, organism-based; settings: time 1-72 hrs
Mus musculus [35] = experiment: Antinociceptive activity in sham-treated C57BL/6J mouse model assessed as effect on von Frey response at 20 mg/kg, ip measured after 1 to 72 hrs; type: functional, organism-based; settings: time 1-72 hrs
[36] = Toxicity in C57BL/6J mouse assessed as effect on locomotor activity at 20 mg/kg, ip measured after 6 hrs; settings: in vivo
Mus musculus [37] = experiment: Antiinflammatory activity in CFA-treated C57BL/6J mouse model assessed as reduction in paw edema at 20 mg/kg, ip measured after 6 hrs

| SMILES | fold change (FC) [1] | fold change (FC) [2] | fold change (FC) [4] | Activity [5] | Activity [6] | Activity (Oocyte [7]) | fold change (FC) [8] | fold change (FC) [9] | fold change (FC) (Oocyte [10]) | Activity (THP-1 [11]) | Activity (THP-1 [12]) | Stability [13] | PPB [14] | Papp [15] | Papp [16] | Papp [17] | Papp [18] | Papp [19] | Papp [20] | Stability [21] | also measured |
| --- | --- | --- | --- | --- | --- | --- | --- | --- | --- | --- | --- | --- | --- | --- | --- | --- | --- | --- | --- | --- | --- |
| CC[N+]1(C)CCN(c2ccc(NC(=O)c3cccc(C)n3)cc2)CC1.[I-] | 1.01 | 1.04 | 111 | < 1% | < 1% | < 1% | 0.659 | 1.05 | 0.558 | inactive | Non-Toxic | Stable | 54% | 2.5 10^-6 cm/s | 2.8 10^-6 cm/s | 2.4 10^-6 cm/s | 2.9 10^-6 cm/s | 3 10^-6 cm/s | 3.1 10^-6 cm/s | > 90% | fold change (FC) [3]: 0.41; Activity (Mus musculus [22]): Active; Activity (Mus musculus [23]): Active; Activity (Mus musculus [24]): Active; Activity (Mus musculus [25]): inactive; Activity (Mus musculus [26]): inactive; Activity [27]: Non-Toxic; Activity (Mus musculus [28]): Active; Activity (Mus musculus [29]): Active; Activity (Mus musculus [30]): Active |
| CC[N+]1(C)CCN(c2ccc(C(=O)Nc3cccc(C)n3)cc2)CC1.[I-] | 1.19 | 0.92 | 0.13 | < 1% | < 1% | < 1% | 0.849 | 0.858 | 0.413 | inactive | Non-Toxic | Stable | 32% | 1.9 10^-6 cm/s | 2.2 10^-6 cm/s | 2.2 10^-6 cm/s | 1.9 10^-6 cm/s | 2.6 10^-6 cm/s | 2.9 10^-6 cm/s | > 90% | fold change (FC) [31]: 0.4; inhibition (PBMC [32]): Active; inhibition (PBMC [33]): inactive; Activity (Mus musculus [34]): Active; Activity (Mus musculus [35]): inactive; Activity [36]: Non-Toxic; Activity (Mus musculus [37]): Active |
